Measurements reported in patent US10729692B2, “Dual inhibition of CDK and HSP90 destabilize HIF1alpha and synergistically induces cancer cell death” (Institute For Cancer Research, priority 2017, dated 2020).

What was measured:
[1] = tested on: HIF1α; experiment: HIF1α level in RCC4 cells (Western blot); format: cell-based; conditions: 6 hours under normoxia, independently of VHL presence
Source text: (§1) HCT116, SW480, HT29, DLD1, and RKO cells were obtained from American Type Culture Collection. HCT116 and HT29 cells were maintained in McCoy's 5A medium (Hyclone) with 10% fetal bovine serum (FBS, Hyclone) and 1% penicillin/streptomycin (P/S). SW480, DLD1, and RCC4 cells were maintained in Dulbecco's modified Eagle medium (Hyclone) with 10% FBS and 1% P/S. RKO cells were maintained in RPMI 1640 medium (Hyclone) with 10% FBS and 1% P/S. Cells were regularly tested and authenticated. All cell lines were maintained at 37° C. in 5% CO2. As for hypoxia treatment, cells were kept in a hypoxia chamber (In vivo^2, Ruskinn) which maintains 0.5% O2.
(§2) Treated cells were lysed in RIPA buffer (Sigma). Protein concentrations were determined using a BCA Protein Assay Kit (Life Technologies). Equal amounts of total protein were boiled with LDS sample buffer (Thermo Fisher Scientific) and reducing agent (Invitrogen). Samples were analyzed with SDS-PAGE. Proteins were transferred to an Immobilon-P PVDF membrane (EMD Millipore). First and secondary antibodies were added in order. Signals were detected after addition of the ECL western blotting substrate (Thermo Fisher Scientific).

[2] = tested on: HIF1α; experiment: Heat shock-induced HIF1α level in HCT116 (Western blot); format: cell-based; conditions: HCT116, normoxia
Source text: as §1, §2

Compound: O=C1NC(=NCc2cccs2)S/C1=C\c1ccc2ncccc2c1 [Ro-3306]
- level of HIF1α [1]: decreases
- reversal of heat shock upregulation of HIF1α [2]: reversed
